In ChEMBL document CHEMBL5126624, “Targeted Isolation of Anti-inflammatory Lignans from Justicia aequilabris by Molecular Networking Approach” (J Nat Prod, 2022):

Legend:
[1] = tested on: RAW264.7; test: Antiinflammatory activity in mouse RAW264.7 cells assessed as decrease in IFN-gamma and LPS-induced nitric oxide production after 24 hrs by ELISA; format: functional, cell-based; settings: RAW264.7, 24 h
[2] = tested on: RAW264.7; test: Antiinflammatory activity in mouse RAW264.7 cells assessed as decrease in IFN-gamma and LPS-induced IL-1beta production by measuring IL-1beta level at 16.7 uM after 24 hrs by ELISA (reference value: 73.3 +/- 1.8 pg/mg); format: functional
[3] = tested on: RAW264.7; test: Antiinflammatory activity in mouse RAW264.7 cells assessed as decrease in IFN-gamma and LPS-induced IL-1beta production by measuring IL-1beta level at 8.4 uM after 24 hrs by ELISA (reference value: 73.3 +/- 1.8 pg/mg); format: functional
[4] = tested on: RAW264.7; test: Antiinflammatory activity in mouse RAW264.7 cells assessed as decrease in IFN-gamma and LPS-induced IL-1beta production by measuring IL-1beta level at 4.2 uM after 24 hrs by ELISA (reference value: 73.3 +/- 1.8 pg/mg); format: functional
[5] = tested on: RAW264.7; test: Antiinflammatory activity in mouse RAW264.7 cells assessed as decrease in IFN-gamma and LPS-induced IL-1beta production by measuring IL-1beta level at 2.1 uM after 24 hrs by ELISA (reference value: 73.3 +/- 1.8 pg/mg); format: functional
[6] = tested on: RAW264.7; test: Antiinflammatory activity in mouse RAW264.7 cells assessed as maximum decrease in IFN-gamma and LPS-induced IL-1beta production after 24 hrs by ELISA; format: functional
[7] = Cytotoxicity in LPS-stimulated mouse RAW264.7 cells assessed as reduction in cell viability incubated for […] by alamar blue dye based colorimetric assay; format: toxicity; settings: LPS-stimulated RAW264.7 cells
[8] = tested on: RAW264.7; test: Antiinflammatory activity in mouse RAW264.7 cells assessed as decrease in IFN-gamma and LPS-induced IL-1beta production by measuring IL-1beta level at 25 uM after 24 hrs by ELISA (reference value: 73.3 +/- 1.8 pg/mg); format: functional
[9] = tested on: RAW264.7; test: Antiinflammatory activity in mouse RAW264.7 cells assessed as decrease in IFN-gamma and LPS-induced IL-1beta production by measuring IL-1beta level at 12.5 uM after 24 hrs by ELISA (reference value: 73.3 +/- 1.8 pg/mg); format: functional
[10] = tested on: RAW264.7; test: Antiinflammatory activity in mouse RAW264.7 cells assessed as decrease in IFN-gamma and LPS-induced IL-1beta production by measuring IL-1beta level at 6.3 uM after 24 hrs by ELISA (reference value: 73.3 +/- 1.8 pg/mg); format: functional
[11] = tested on: RAW264.7; test: Antiinflammatory activity in mouse RAW264.7 cells assessed as decrease in IFN-gamma and LPS-induced IL-1beta production at 25 uM after 24 hrs by ELISA; format: functional
[12] = tested on: RAW264.7; test: Antiinflammatory activity in mouse RAW264.7 cells assessed as decrease in IFN-gamma and LPS-induced IL-1beta production by measuring IL-1beta level at 3.1 uM after 24 hrs by ELISA (reference value: 73.3 +/- 1.8 pg/mg); format: functional
[13] = tested on: RAW264.7; test: Antiinflammatory activity in mouse RAW264.7 cells assessed as decrease in IFN-gamma and LPS-induced IL-1beta production by measuring IL-1beta level at 50 uM after 24 hrs by ELISA (reference value: 73.3 +/- 1.8 pg/mg); format: functional
[14] = tested on: RAW264.7; test: Antiinflammatory activity in mouse RAW264.7 cells assessed as decrease in IFN-gamma and LPS-induced IL-1beta production at 50 uM after 24 hrs by ELISA; format: functional
[15] = tested on: RAW264.7; test: Antiinflammatory activity in mouse RAW264.7 cells assessed as decrease in IFN-gamma and LPS-induced IL-1beta production at 6.7 uM after 24 hrs by ELISA; format: functional
[16] = tested on: RAW264.7; test: Antiinflammatory activity in mouse RAW264.7 cells assessed as decrease in IFN-gamma and LPS-induced IL-1beta production by measuring IL-1beta level at 10 uM after 24 hrs by ELISA (reference value: 73.3 +/- 1.8 pg/mg); format: functional

Structure (SMILES) | IC50 [1] | Activity [2] | Activity [3] | Activity [4] | Activity [5] | CC50 at 24 h [7] | Activity [8] | Activity [9] | Activity [10] | also measured
COc1cc(C[C@H]2COC(=O)[C@@H](C(=O)O)[C@@H](C)[C@@H](C(=O)O)C(=O)OC[C@@H]2Cc2ccc(O)c(OC)c2)ccc1O | > 200 µM | – | – | – | – | 23.4 µM | 70.2 pg/mg | 71.3 pg/mg | 73.3 pg/mg | Activity [13]: 56 pg/mg; Imax [14]: 23.5%
CN(C)c1ccc(C(=C2C=CC(=[N+](C)C)C=C2)c2ccc(N(C)C)cc2)cc1 [GENTIAN VIOLET] | 1.1 µM | – | – | – | – | – | – | – | – | –
C[C@@H]1C[C@H]2[C@@H]3CCC4=CC(=O)C=C[C@]4(C)[C@@]3(F)[C@@H](O)C[C@]2(C)[C@@]1(O)C(=O)CO [DEXAMETHASONE] | – | – | – | – | – | 4.4 µM | – | – | – | Imax [16]: 47.9%

The next lines start with results.

IC50 [1] | Structure (SMILES) | Activity [2] | Activity [3] | Activity [4] | Activity [5] | CC50 at 24 h [7] | Activity [8] | Activity [9] | Activity [10] | also measured
132 µM | COc1cc(C[C@@H](CO)[C@H](CO)Cc2ccc(O)c(OC)c2)ccc1O [(+)-SECOISOLARICIRESINOL] | 73 pg/mg | 72.8 pg/mg | 73 pg/mg | 74.9 pg/mg | – | – | – | – | Imax [6]: 0%
173 µM | COc1cc(C[C@@H](CO)[C@H](COC(=O)CC(=O)O)Cc2ccc(O)c(OC)c2)ccc1O | – | – | – | – | 9.1 µM | 53.3 pg/mg | 66 pg/mg | 71.1 pg/mg | Imax [11]: 27.3%; Activity [12]: 73.1 pg/mg
92 µM | C/C=C/C(=O)OC[C@H](Cc1ccc(O)c(OC)c1)[C@H](CO)Cc1ccc(O)c(OC)c1 | 49.4 pg/mg | 65.7 pg/mg | 69.8 pg/mg | 74.1 pg/mg | 7.3 µM | – | – | – | Imax [15]: 32.5%
